Source: BindingDB's records for patent WO2022098970 (Eli Lilly, 2022)

Key:
Test in all cases: RET Enzyme Assay
[1] = target: Proto-oncogene tyrosine-protein kinase receptor Ret [V804M] (Human, UniProt P07949, V804M)
Protocol: (§1) Compounds of formulas I, la to lx, Ila to IIx, and/or Illa to IIIx are screened for their ability to inhibit wildtype, V804M, and G810S mutant RET kinase using CisBio s HTRF KinEASE -TK assay technology. N-terminal GST tagged recombinant human RET cytoplasmic domain (aa 658-end) from Eurofins (1.25 nM RET; Catalog No. 14-570M) or N-terminal GST tagged recombinant human V804M mutant RET cytoplasmic domain (aa 658-end) from Millipore (1.25 nM enzyme; Catalog No. 14-760) or N-Terminal GST-tagged recombinant human G810S (aa-658-end) (1.25 nM Enzyme; produced in insect cells) is incubated with 62.5 nM TK-substrate biotin (CisBio, part of Catalog No. 62TK0PEC) and 1 mM ATP along with test compound (0.4% final DMSO in the assay) in a IX Cisbuio enzymatic buffer consisting of […], 5 mM MgCh, 0.04% BSA and 0.05% Tween20 in a volume of 10 pL. Compounds are typically prepared in a threefold serial dilution in DMSO and added to the assay to give the appropriate final concentration. After a 40-60 min (40 min for V804M, 60 min for WT and G810S) incubation at 22 °C, the reaction is quenched by adding quench solution (10 pL) containing 7.8 nM Streptavidine-XL665 and 0.5X TK-ab-Cryptate in HTRF detection buffer (all from CisBio, part of Cat. No. 62TK0PEC). After a 60-80 min incubation (60 minutes for WT, 80 minutes for V804M and G810S) at 22 °C, the extent of reaction is determined using a PHERastar plate reader via HTRF detection at excitation/emission 337/665 nm. Percent of inhibition is calculated with 0% inhibition referring to control conditions containing no compound (0.4% DMSO only) and 100% inhibition represented by conditions containing no enzyme. The % inhibition values are fit to a 4 parameter logistic curve, and the determined IC5o value is defined as the estimated concentration of inhibitor at the inflexion point of the fitted curve.

[2] = target: Proto-oncogene tyrosine-protein kinase receptor Ret (Homo sapiens, UniProt P07949)
Proto-oncogene tyrosine-protein kinase receptor Ret, sequence (P07949 whole entry): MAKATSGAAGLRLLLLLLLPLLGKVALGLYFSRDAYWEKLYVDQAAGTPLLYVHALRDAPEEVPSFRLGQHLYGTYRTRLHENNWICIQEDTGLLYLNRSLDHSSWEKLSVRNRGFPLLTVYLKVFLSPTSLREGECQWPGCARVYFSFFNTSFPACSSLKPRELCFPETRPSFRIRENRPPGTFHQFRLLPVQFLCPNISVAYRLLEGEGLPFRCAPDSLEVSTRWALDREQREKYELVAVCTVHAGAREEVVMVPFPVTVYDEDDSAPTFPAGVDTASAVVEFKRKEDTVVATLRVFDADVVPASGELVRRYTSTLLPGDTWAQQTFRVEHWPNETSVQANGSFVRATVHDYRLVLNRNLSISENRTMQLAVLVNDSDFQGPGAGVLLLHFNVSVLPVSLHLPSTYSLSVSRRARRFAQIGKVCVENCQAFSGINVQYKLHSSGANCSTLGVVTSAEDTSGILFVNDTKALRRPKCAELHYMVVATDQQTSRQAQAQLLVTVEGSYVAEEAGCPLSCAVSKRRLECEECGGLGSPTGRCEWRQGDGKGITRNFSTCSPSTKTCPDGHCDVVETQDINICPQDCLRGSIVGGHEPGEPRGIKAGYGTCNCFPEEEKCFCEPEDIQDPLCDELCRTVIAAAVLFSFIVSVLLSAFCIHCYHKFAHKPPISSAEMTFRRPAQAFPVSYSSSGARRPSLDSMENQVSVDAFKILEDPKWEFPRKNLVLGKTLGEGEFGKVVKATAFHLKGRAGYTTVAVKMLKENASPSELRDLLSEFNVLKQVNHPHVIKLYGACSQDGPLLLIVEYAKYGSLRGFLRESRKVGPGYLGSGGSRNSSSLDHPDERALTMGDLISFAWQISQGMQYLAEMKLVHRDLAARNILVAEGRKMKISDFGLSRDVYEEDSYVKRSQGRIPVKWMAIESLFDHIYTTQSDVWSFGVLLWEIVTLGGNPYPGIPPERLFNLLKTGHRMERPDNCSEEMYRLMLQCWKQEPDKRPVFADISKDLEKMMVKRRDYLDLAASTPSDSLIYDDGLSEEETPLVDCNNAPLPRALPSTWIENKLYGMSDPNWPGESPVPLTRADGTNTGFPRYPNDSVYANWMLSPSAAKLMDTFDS
Protocol: as §1

[3] = target: Proto-oncogene tyrosine-protein kinase receptor Ret [G810S] (Homo sapiens, UniProt P07949, G810S)
Proto-oncogene tyrosine-protein kinase receptor Ret [G810S], sequence (P07949 29-1114 G810S limits assumed): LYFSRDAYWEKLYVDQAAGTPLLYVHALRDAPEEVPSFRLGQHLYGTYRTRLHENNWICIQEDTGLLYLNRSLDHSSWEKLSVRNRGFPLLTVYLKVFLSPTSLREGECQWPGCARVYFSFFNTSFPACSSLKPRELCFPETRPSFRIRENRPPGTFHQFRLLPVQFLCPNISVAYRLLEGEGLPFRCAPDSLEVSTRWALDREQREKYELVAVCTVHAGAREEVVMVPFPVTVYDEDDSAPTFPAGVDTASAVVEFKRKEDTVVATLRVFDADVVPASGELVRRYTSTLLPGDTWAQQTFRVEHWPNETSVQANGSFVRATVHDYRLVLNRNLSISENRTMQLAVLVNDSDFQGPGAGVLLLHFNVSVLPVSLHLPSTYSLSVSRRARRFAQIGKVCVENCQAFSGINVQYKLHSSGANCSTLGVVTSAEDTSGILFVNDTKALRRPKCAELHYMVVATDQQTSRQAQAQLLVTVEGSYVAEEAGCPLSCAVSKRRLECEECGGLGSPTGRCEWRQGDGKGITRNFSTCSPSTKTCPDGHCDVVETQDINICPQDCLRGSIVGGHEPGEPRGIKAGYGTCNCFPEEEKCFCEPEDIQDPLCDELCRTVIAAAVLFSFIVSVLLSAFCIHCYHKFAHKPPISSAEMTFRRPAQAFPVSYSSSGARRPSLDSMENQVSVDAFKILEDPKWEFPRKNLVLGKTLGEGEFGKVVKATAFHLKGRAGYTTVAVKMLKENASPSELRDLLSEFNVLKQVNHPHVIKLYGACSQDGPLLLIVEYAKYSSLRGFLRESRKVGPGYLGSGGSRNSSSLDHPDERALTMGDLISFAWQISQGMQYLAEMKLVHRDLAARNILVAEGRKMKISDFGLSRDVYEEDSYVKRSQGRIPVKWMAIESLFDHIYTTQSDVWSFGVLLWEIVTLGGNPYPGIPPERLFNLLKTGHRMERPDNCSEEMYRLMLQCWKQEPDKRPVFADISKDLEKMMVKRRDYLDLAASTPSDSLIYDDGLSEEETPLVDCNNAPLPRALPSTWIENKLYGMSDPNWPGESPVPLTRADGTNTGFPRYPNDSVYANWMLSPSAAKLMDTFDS
Protocol: as §1

Measured: IC50

Proto-oncogene tyrosine-protein kinase receptor Ret [V804M], sequence (P07949 29-1114 V804M limits assumed): as the sequence (P07949 29-1114 G810S limits assumed) above, with V776M, S782G counted along it

CC1(n2nc(-c3ccc(CC(=O)Nc4cc(C56CC(F)(C5)C6)no4)c(F)c3F)c(C(N)=O)c2N)CC1 [WO2022098970, Example 221]
< 150 nM: all assays above

CC(C)n1nc(-c2cnc(CC(=O)Nc3cc(C(C)(C)C)on3)cn2)c(C(N)=O)c1N [WO2022098970, Example 311]
< 150 nM: all assays above

CC(C)n1nc(-c2ccc(CC(=O)Nc3cc(C4(C)CCCC4)no3)cc2)c(C(N)=O)c1N [WO2022098970, Example 3]
< 150 nM: all assays above

CC(C)n1nc(-c2ccc(CC(=O)Nc3cc(C45CC(F)(C4)C5)no3)cc2)c(C(N)=O)c1N [WO2022098970, Example 4]
< 150 nM: all assays above

CC(C)n1nc(-c2ccc(CC(=O)Nc3ccc(CN4CCN(C)CC4)c(C(F)(F)F)c3)nc2)c(C(N)=O)c1N [WO2022098970, Example 329]
< 150 nM: all assays above

CC(C)n1nc(-c2ccc(CC(=O)Nc3cc(C(C)(F)F)no3)cn2)c(C(N)=O)c1N [WO2022098970, Example 306]
< 150 nM: all assays above

CC(C)n1nc(-c2ccc(CC(=O)Nc3cc(C4CCCCC4)no3)cn2)c(C(N)=O)c1N [WO2022098970, Example 301]
< 150 nM: all assays above

CC(C)n1nc(-c2ccc(CC(=O)Nc3cc(-c4ccc(Cl)c(F)c4Cl)no3)nc2)c(C(N)=O)c1N [WO2022098970, Example 330]
< 150 nM: all assays above

Cc1ccc(-c2cc(NC(=O)Cc3ccc(-c4nn(C(C)C)c(N)c4C(N)=O)cn3)on2)c(F)c1 [WO2022098970, Example 324]
< 150 nM: all assays above

CC(C)n1nc(-c2ccc(CC(=O)Nc3cc(C(C)(C)CC(F)(F)F)on3)nc2)c(C(N)=O)c1N [WO2022098970, Example 335]
< 150 nM: all assays above

CC(C)n1nc(-c2ccc(CC(=O)Nc3cc(-c4ccc(Cl)cc4Cl)no3)cn2)c(C(N)=O)c1N [WO2022098970, Example 300]
< 150 nM: all assays above

CC1(n2nc(-c3ccc(CC(=O)Nc4cc(-c5ccc(F)cc5Cl)no4)cc3)c(C(N)=O)c2N)CC1 [WO2022098970, Example 199]
< 150 nM: all assays above

CC(C)n1nc(-c2ccc(CC(=O)Nc3cc(-c4ccc(Cl)cc4F)no3)nc2)c(C(N)=O)c1N [WO2022098970, Example 321]
< 150 nM: all assays above

CC(C)n1nc(-c2ccc(CC(=O)Nc3cc(CC(C)(C)C)no3)c(F)c2F)c(C(N)=O)c1N [WO2022098970, Example 154]
< 150 nM: all assays above

CCC(C)(C)c1cc(NC(=O)Cc2ccc(-c3nn(C(C)C)c(N)c3C(N)=O)nc2)on1 [WO2022098970, Example 303]
< 150 nM: all assays above

CCC(C)(C)c1cc(NC(=O)Cc2cnc(-c3nn(C(C)C)c(N)c3C(N)=O)cn2)on1 [WO2022098970, Example 310]
< 150 nM: all assays above

CC(C)n1nc(-c2ccc(CC(=O)Nc3cc(C(C)(C)C(F)(F)F)no3)cc2)c(C(N)=O)c1N [WO2022098970, Example 2]
< 150 nM: all assays above

CC(C)n1nc(-c2ccc(CC(=O)Nc3cc(C(C)(C)C)on3)nc2)c(C(N)=O)c1N [WO2022098970, Example 318]
< 150 nM: all assays above

CC(C)n1nc(-c2ccc(CC(=O)Nc3cc(-c4ccc(F)cc4Cl)no3)cn2)c(C(N)=O)c1N [WO2022098970, Example 302]
< 150 nM: all assays above

CC(C)n1nc(-c2ccc(CC(=O)Nc3cc(C45CC(C(F)(F)F)(C4)C5)no3)cc2)c(C(N)=O)c1N [WO2022098970, Example 153]
< 150 nM: all assays above

CC(C)n1nc(-c2ccc(CC(=O)Nc3cc(-c4ccc(Cl)cc4Cl)no3)nc2)c(C(N)=O)c1N [WO2022098970, Example 316]
< 150 nM: all assays above

CC(C)n1nc(-c2ccc(CC(=O)Nc3cc(C4(C)CC4)no3)cc2)c(C(N)=O)c1N [WO2022098970, Example 7]
< 150 nM: all assays above

CC(C)n1nc(-c2ccc(CC(=O)Nc3cccc(C(F)(F)F)c3)cn2)c(C(N)=O)c1N [WO2022098970, Example 292]
< 150 nM: all assays above

CC(C)n1nc(-c2ccc(CC(=O)Nc3cc(C45CC(C4)C5)no3)cc2)c(C(N)=O)c1N [WO2022098970, Example 5]
< 150 nM: all assays above

CC(C)n1nc(-c2ccc(CC(=O)NC3C=C(C(C)(C)C)SN3)cn2)c(C(N)=O)c1N (configuration not stated) [WO2022098970, Example 10]
< 150 nM: all assays above

CC(C)n1nc(-c2ccc(CC(=O)Nc3cc(-c4ccccc4Cl)no3)nc2)c(C(N)=O)c1N [WO2022098970, Example 317]
< 150 nM: all assays above

CC(C)n1nc(-c2ccc(CC(=O)Nc3cc(C(C)(C)C(F)(F)F)n(C)n3)cc2)c(C(N)=O)c1N [WO2022098970, Example 8]
< 150 nM: all assays above

CC(C)n1nc(-c2ccc(CC(=O)Nc3cc(C4(C)CCCC4)no3)cn2)c(C(N)=O)c1N [WO2022098970, Example 294]
< 150 nM: all assays above

CC(C)n1nc(-c2ccc(CC(=O)Nc3cc(C(C)(C)C(F)(F)F)on3)cn2)c(C(N)=O)c1N [WO2022098970, Example 293]
< 150 nM: all assays above

CC12CC(c3cc(NC(=O)Cc4ccc(-c5nn(C6(C)CC6)c(N)c5C(N)=O)c(F)c4F)on3)(C1)C2 [WO2022098970, Example 222]
< 150 nM: all assays above

CC(C)n1nc(-c2ccc(CC(=O)Nc3cc(CC4(C)CC4)no3)cc2)c(C(N)=O)c1N [WO2022098970, Example 1]
< 150 nM: all assays above

CC(C)n1nc(-c2cnc(CC(=O)Nc3cc(-c4ccc(Cl)cc4Cl)no3)cn2)c(C(N)=O)c1N [WO2022098970, Example 308]
< 150 nM: all assays above

CC(C)n1nc(-c2ccc(CC(=O)Nc3cc(-c4ccccc4)no3)cn2)c(C(N)=O)c1N [WO2022098970, Example 299]
< 150 nM: all assays above

CC1(n2nc(-c3ccc(CC(=O)Nc4cc(C(C)(C)C(F)(F)F)no4)cc3)c(C(N)=O)c2N)CC1 [WO2022098970, Example 6]
< 150 nM: all assays above
